How the values were obtained:
Assay type in all cases: nucleic-acid assay
[1] = tested on: Nucleic Acid; test: Stabilization of 5'-d[(G3T2A)3G3]-3' quadruplex DNA assessed as change in melting temperature at 5 uM by CD-spectrophotometry
[2] = tested on: Nucleic Acid; test: Stabilization of 5'-d[(G3T2A)3G3]-3' quadruplex DNA assessed as change in melting temperature at 10 uM by CD-spectrophotometry
[3] = tested on: Nucleic Acid; test: Stabilization of 5'-d[(G3T2A)3G3]-3' quadruplex DNA assessed as change in melting temperature at 20 uM by CD-spectrophotometry
[4] = target: Nucleic Acid; test: Binding affinity to 5'-d[(G3T2A)3G3]-3' quadruplex DNA by surface plasmon resonance
[5] = tested on: Nucleic Acid; test: Stabilization of 5'-d[(AT)10]-3' duplex DNA assessed as melting temperature at 20 uM by CD-spectrophotometry

Compound	ΔTm [1]	ΔTm [2]	ΔTm [3]	Kd [4]	Tm [5]
NCCCCNc1ccnc2c1ccc1c(NCCCCN)ccnc12	2.5 °C	14.6 °C	15.3 °C	230 nM	57 °C
Cc1ccnc2c1ccc1c(C)ccnc12	–	–	0.1 °C	–	–
c1cnc2c(c1)ccc1cccnc12	–	–	0 °C	–	–
NCCCNc1ccnc2c1ccc1c(NCCCN)ccnc12	2.4 °C	10.6 °C	13.1 °C	450 nM	–
CN(C)CCCNc1ccnc2c1ccc1c(NCCCN(C)C)ccnc12	1.9 °C	10.6 °C	13.3 °C	300 nM	–
CN(C)CCNc1ccnc2c1ccc1c(NCCN(C)C)ccnc12	1.8 °C	8.8 °C	10.5 °C	820 nM	–
N=C(N)NCCCCNc1ccnc2c1ccc1c(NCCCCNC(=N)N)ccnc12	6.1 °C	14.7 °C	17.3 °C	330 nM	63 °C
Nc1ccnc2c1ccc1c(N)ccnc12	–	–	1.3 °C	–	–
N=C(N)NCCCNc1ccnc2c1ccc1c(NCCCNC(=N)N)ccnc12	6 °C	14.2 °C	16.6 °C	410 nM	–
NCCNc1ccnc2c1ccc1c(NCCN)ccnc12	2 °C	7.6 °C	9.9 °C	720 nM	–
CN(C)CCCCNc1ccnc2c1ccc1c(NCCCCN(C)C)ccnc12	2.3 °C	13 °C	14.4 °C	330 nM	–
N=C(N)NCCNc1ccnc2c1ccc1c(NCCNC(=N)N)ccnc12	3 °C	9.9 °C	13.7 °C	400 nM	–
